Several values for one entry are separate records, joined by “and”; a condition that tells them apart may be missing. Equal values may be shown once.
Legend:
[1] = tested on: pruritus of sunburn; assay: Topical application to pruritus of sunburn (subject two); assay type: in vivo, human
Method: A corn oil solution of vitamin D3 was prepared by adding 1 gram of vitamin D3 to 20 ml corn oil with mixing for approximately 1 hour followed by brief heating to approximately 45° C. until dissolved. One ml of this solution was mixed with 47 ml corn oil and 2 ml isopropyl myristate to obtain a final concentration of vitamin D3 of 1000 μg/ml.
Subject two developed a sunburn on the back and experienced severe pruritus. […] The pruritus abated completely about one-half hour after these applications.

[2] = tested on: pruritus caused by poison ivy; assay: Topical application to poison ivy rash, pruritic score on 100 mm visual analog scale (subject one); assay type: in vivo, human
Method: Testing Procedure: Subject one contracted poison ivy rash and tested the various preparations above. Preparations were evaluated by the subject after application to an area of rash approximately 1-10 square centimeters. Comparisons were made of antipruritic effect by marking on a 100 mm visual analog scale consisting of a plain line with the left end labeled “None” and the right end labeled “Maximal”. The subject was instructed to mark the scale at a point which they felt corresponded to the level of itchiness that they were feeling at the treatment site at the appropriate time. The samples were coded so that the subject was not aware of what a given sample was and they were not told if they were expected to have an effect. They carried out the evaluation unaided, applying the samples in any order they chose except where side-by-side comparisons were made as indicated in the tables. From the marked scale the pruritic score was determined as the number of mm from the left side of the scale to the subject's mark. Thus a higher value indicates a high level or pruritus and a low value indicates a low level to no pruritus.
The patient and test procedures were as described in example 3. The results of tests using oil-based formulations are in tables 2a through 2c.
The patient and test procedures were as described in example 3. The results of tests using oil-based formulations are in Table 3.
Serial dilutions of Vita Moist Cream were made from an initial 5 ml quantity of Vita Moist Cream by adding successive 5 ml quantities of the diluent, Care Deeply Cream, to the starting formulation and subsequent 5 ml aliquots of successive dilutions as follows:
After coding with numbers 1-6 as above, the preparations were randomly sorted and again coded […] and tested two at a time in alphabetical order. […] The minimal effective concentration in this formulation appears to be between 1.25 and 2.5 μg/ml.

C=C1CC[C@H](O)C/C1=C/C=C1\CCC[C@]2(C)[C@@H]([C@H](C)CCCC(C)C)CC[C@@H]12 [Vitamin D3, cholecalciferol]
antipruritic effect (in words) ([1]; 1000 μg/ml in corn oil): immediately and completely alleviated | time until the pruritus returned ([1]; after 1000 μg/ml in corn oil): one and one-half | antipruritic effect (in words, no scores recorded) ([2]; 869 μg/ml in Eucerin lotion, compared with Eucerin plus corn oil control): stopped the pruritus instantly and completely | antipruritic effect (in words) ([2]; Keri lotion as vehicle, Table 1b): rapid and complete antipruritic effect | pruritic score (100 mm visual analog scale) ([2]; Keri lotion with added isopropyl myristate, 52 μg/ml, time 0 min): 77 mm | pruritic score (100 mm visual analog scale) ([2]; Keri lotion with added isopropyl myristate, 52 μg/ml, time 1 min): 35 mm | pruritic score (100 mm visual analog scale) ([2]; Keri lotion with added isopropyl myristate, 52 μg/ml, time 5 min): 0 mm | pruritic score (100 mm visual analog scale) ([2]; Keri lotion with added isopropyl myristate, 52 μg/ml, time 10 min): 0 mm | pruritic score (100 mm visual analog scale) ([2]; Keri lotion with added isopropyl myristate, 502 μg/ml, time 0 min): 80 mm | pruritic score (100 mm visual analog scale) ([2]; Keri lotion with added isopropyl myristate, 502 μg/ml, time 1 min): 0 mm | pruritic score (100 mm visual analog scale) ([2]; Keri lotion with added isopropyl myristate, 502 μg/ml, time 5 min): 0 mm | pruritic score (100 mm visual analog scale) ([2]; Keri lotion with added isopropyl myristate, 502 μg/ml, time 10 min): 0 mm | pruritic score (100 mm visual analog scale) ([2]; Keri lotion with added isopropyl myristate, 869 μg/ml, time 0 min): 82 mm | pruritic score (100 mm visual analog scale) ([2]; Keri lotion with added isopropyl myristate, 869 μg/ml, time 1 min): 0 mm | pruritic score (100 mm visual analog scale) ([2]; Keri lotion with added isopropyl myristate, 869 μg/ml, time 5 min): 0 mm | pruritic score (100 mm visual analog scale) ([2]; Keri lotion with added isopropyl myristate, 869 μg/ml, time 10 min): 0 mm | pruritic score (100 mm visual analog scale) ([2]; Keri lotion, 10 μg/ml, no isopropyl myristate, time 0 min, single tests): 78 mm and 80 mm | pruritic score (100 mm visual analog scale) ([2]; Keri lotion, 10 μg/ml, no isopropyl myristate, time 1 min, single tests): 0 mm | pruritic score (100 mm visual analog scale) ([2]; Keri lotion, 10 μg/ml, no isopropyl myristate, time 5 min, single tests): 0 mm | pruritic score (100 mm visual analog scale) ([2]; Keri lotion, 10 μg/ml, no isopropyl myristate, time 10 min, single tests): 0 mm | pruritic score (100 mm visual analog scale) ([2]; Keri lotion, 10 μg/ml, with isopropyl myristate, time 0 min, single tests): 80 mm and 77 mm | pruritic score (100 mm visual analog scale) ([2]; Keri lotion, 10 μg/ml, with isopropyl myristate, time 5 min, single tests): 0 mm | pruritic score (100 mm visual analog scale) ([2]; Keri lotion, 10 μg/ml, with isopropyl myristate, time 10 min, single tests): 0 mm | pruritic score, Mean ([2]; Keri lotion, 10 μg/ml, mean of four tests (with and without isopropyl myristate), time 0 min): 79 mm | pruritic score, Mean ([2]; Keri lotion, 10 μg/ml, mean of four tests (with and without isopropyl myristate), time 1 min): 0 mm | pruritic score, Mean ([2]; Keri lotion, 10 μg/ml, mean of four tests (with and without isopropyl myristate), time 5 min): 0 mm | pruritic score, Mean ([2]; Keri lotion, 10 μg/ml, mean of four tests (with and without isopropyl myristate), time 10 min): 0 mm | pruritic score (100 mm visual analog scale) ([2]; Keri lotion, 521 μg/ml, no isopropyl myristate, time 0 min): 80 mm | pruritic score (100 mm visual analog scale) ([2]; Keri lotion, 521 μg/ml, no isopropyl myristate, time 1 min): 81 mm | pruritic score (100 mm visual analog scale) ([2]; Keri lotion, 521 μg/ml, no isopropyl myristate, time 5 min): 0 mm | pruritic score (100 mm visual analog scale) ([2]; Keri lotion, 521 μg/ml, no isopropyl myristate, time 10 min): 0 mm | antipruritic effect (in words) ([2]; Keri lotion, concentrations from 10 through 869 μg/ml, Table 1c): effective in rapidly and effectively relieving pruritus | antipruritic effect (in words) ([2]; Vita Moist Cream diluted with Care Deeply Cream, 1.25 μg/ml and 0.5 μg/ml): some antipruritic effect but the effect was not complete nor was it rapid and sustained | antipruritic effect (in words) ([2]; Vita Moist Cream diluted with Care Deeply Cream, 2.5 and 5 μg/ml): rapid and complete alleviation of pruritus | antipruritic effect (in words) ([2]; corn oil vehicle, 1000 μg/ml, mean of two tests compared to vehicle control): no detectable antipruritic effect | pruritic score, Mean ([2]; corn oil, 1000 μg/ml, mean of two tests, time 0 min): 81 mm | pruritic score, Mean ([2]; corn oil, 1000 μg/ml, mean of two tests, time 1 min): 81 mm | pruritic score, Mean ([2]; corn oil, 1000 μg/ml, mean of two tests, time 5 min): 70 mm | pruritic score, Mean ([2]; corn oil, 1000 μg/ml, mean of two tests, time 10 min): 59 mm | pruritic score (100 mm visual analog scale) ([2]; corn oil, 1000 μg/ml, time 0 min, tests 1 and 2): 80 mm and 81 mm | pruritic score (100 mm visual analog scale) ([2]; corn oil, 1000 μg/ml, time 1 min, tests 1 and 2): 80 mm and 81 mm | pruritic score (100 mm visual analog scale) ([2]; corn oil, 1000 μg/ml, time 5 min, tests 1 and 2): 81 mm and 58 mm | pruritic score (100 mm visual analog scale) ([2]; corn oil, 1000 μg/ml, time 10 min, tests 1 and 2): 60 mm and 58 mm | lowest concentration found to have an anti-pruritic effect ([2]; non-aqueous vehicle): 521 µg/mL | antipruritic effect (in words) ([2]; petroleum jelly vehicle, 521 μg/ml): an antipruritic effect | pruritic score (100 mm visual analog scale) ([2]; petroleum jelly, 521 μg/ml, time 0 min): 72 mm | pruritic score (100 mm visual analog scale) ([2]; petroleum jelly, 521 μg/ml, time 1 min): 11 mm | pruritic score (100 mm visual analog scale) ([2]; petroleum jelly, 521 μg/ml, time 5 min): 10 mm | pruritic score (100 mm visual analog scale) ([2]; petroleum jelly, 521 μg/ml, time 10 min): 9 mm | effective concentration ([2]; suspension of water and a dispersed phase): 12.5 µg/mL | lowest effective concentration ([2]; water-based emulsion formulation): 2.5 µg/mL

Source: patent US20010007866A1, “TREATMENT OF PRURITUS WITH VITAMIN D AND ANALOGS THEREOF” (priority 1995, published 2001)
